According to patent US20110082205A1, “Docosahexaenoic Acid Gel Caps” (priority 2009, published 2011):
Marks after values point to notes of the source that are not given here.

Tests used:
[1] = system: male Wister rats; test: Effect on triglyceride levels in high fructose diet rats; type: in vivo, Wistar rats; conditions: for Triglycerides % of control: actual means; for Serum Triglycerides LSMEAN: least squares mean; for Triglycerides: oral gavage, mean ± SD
Text: The effect of the DHA ethyl ester (DHA-EE) produced according to the method of Example 2 on triglyceride levels was investigated using male Wister rats. The DHA-EE used in this example contained DHA at about 93.6% (wt/wt) of the total fatty acid content of the dosage form. The effect of purified DHA-EE was compared to two different DHA-containing products: DHASCO-T® (Martek Bioscience Corporation, Columbia, Md.) and Lovaza® (Reliant Pharmaceuticals, Inc., Durham, N.C.). DHASCO-T® comprises approximately 45% DHA and 55% other fatty acids (with substantially no EPA). Lovaza® comprises approximately 41.7% DHA ethyl ester, 51.7% EPA ethyl ester, and 6.4% other fatty acids. The vehicle control comprised corn oil. 84 Wistar rats were randomized into 7 groups of 12 rats each. Each rat was administered orally a high fructose diet for 4-5 weeks to raise triglyceride levels. After 4-5 weeks, rats with a triglyceride level <300 mg/dL were excluded. Then each rat was administered either (a) a vehicle control, (b) DHA ethyl ester (0.6 g/kg/day, 1.3 g/kg/day, 2.5 g/kg/day, or 5.0 g/kg/day), (c) DHASCO-T (5.0 g/kg/day), or (d) Lovaza (5.0 g/kg/day) for 28 days by oral gavage. Diets were controlled for calories, nutrients and levels of vitamin E. Triglyceride levels of the rats were measured at 14 days and 28 days. Triglyceride values shown are averages for each treatment group, presented as actual mean values.
The triglyceride results presented below in Table 8 are calculated from the same data set as in Table 7. Triglyceride values shown in Table 8 are averages for each treatment group, presented as least squares mean values.

[2] = system: male Wister rats; test: Effect on total cholesterol levels in rats; type: in vivo, Wistar rats; conditions: for Serum Cholesterol % of control: actual means; for Serum Cholesterol LSMEAN: least squares mean; for Serum Cholesterol: mean ± SD
Procedure: The effect of the DHA ethyl ester of Example 2 on cholesterol levels was investigated using male Wister rats, and was compared to DHASCO-T® and Lovaza®. The rats were administered either (a) a vehicle control, (b) DHA ethyl ester (0.6 g/kg/day, 1.3 g/kg/day, 2.5 g/kg/day, or 5.0 g/kg/day), (c) DHASCO-T (5.0 g/kg/day), or (d) Lovaza (5.0 g/kg/day) for 28 days. Cholesterol levels, i.e., total cholesterol, of the rats were measured at 14 days and 28 days. Total cholesterol values shown are averages for each treatment group, i.e., actual mean values.
The cholesterol results presented below in Table 10 are calculated from the same data set as in Table 9. Cholesterol level values shown in Table 10 are averages for each treatment group, presented as least squares mean values.

[3] = rat, in vivo
Text: The plasma DHA fatty acid area percent and plasma EPA fatty acid area percent were determine in the rats at day 1 and day 29 (post necropsy).

[4] = day 14, 0.6 g/kg/day fatty acid
[5] = day 14, 1.3 g/kg/day fatty acid
[6] = day 14, 2.5 g/kg/day fatty acid
[7] = day 14, 5.0 g/kg/day fatty acid
[8] = day 28, 0.6 g/kg/day fatty acid
[9] = day 28, 1.3 g/kg/day fatty acid
[10] = day 28, 2.5 g/kg/day fatty acid
[11] = day 28, 5.0 g/kg/day fatty acid

With `CC/C=C\C/C=C\C/C=C\C/C=C\C/C=C\C/C=C\CCC(=O)OCC` [DHA-EE, ethyl docosahexaenoate] the triglyceride levels ([1]; 14 days, lowest dosage level (0.6 g/kg/day)) was “reduces triglyceride levels”, the “Serum Triglycerides % of control (LSMEAN)” value (shortened to “Serum Triglycerides %”) [1, 4] was 65% and the “Triglycerides % of control” value [1, 4] was 67%. The “Serum Triglycerides LSMEAN” value [1, 4] was 168.4† mg/dL, the Triglycerides [1, 4] was 176.5 ± 96.4 mg/dL and the “Serum Triglycerides %” value [1, 5] was 67%. For the same compound, the “Triglycerides % of control” value [1, 5] was 66%, the “Serum Triglycerides LSMEAN” value [1, 5] was 173.6† mg/dL and the Triglycerides [1, 5] was 175.2 ± 50.6 mg/dL. The “Serum Triglycerides %” value [1, 6] was 47%, the “Triglycerides % of control” value [1, 6] was 44% and the “Serum Triglycerides LSMEAN” value [1, 6] was 120.2† mg/dL. The Triglycerides [1, 6] was 115.5 ± 60.9 mg/dL, the “Serum Triglycerides %” value [1, 7] was 43% and the “Triglycerides % of control” value [1, 7] was 37%. For the same compound, the “Serum Triglycerides LSMEAN” value [1, 7] was 110.7† mg/dL, the Triglycerides [1, 7] was 97.6 ± 47.8 mg/dL and the “triglyceride levels vs control” value ([1]; day 28, 0.6 g DHA-EE, DHASCO-T 5.0 g/kg/day) was “not significantly lower than control”. For the same compound, the “Serum Triglycerides %” value [1, 8] was 93%, the “Triglycerides % of control” value [1, 8] was 95% and the “Serum Triglycerides LSMEAN” value [1, 8] was 174.5 mg/dL. For the same compound, the Triglycerides [1, 8] was 182.7 ± 86.9 mg/dL, the “Serum Triglycerides %” value [1, 9] was 60% and the “Triglycerides % of control” value [1, 9] was 60%. The “Serum Triglycerides LSMEAN” value [1, 9] was 113.1† mg/dL, the Triglycerides [1, 9] was 114.7 ± 37.2 mg/dL and the “Serum Triglycerides %” value [1, 10] was 60%. For the same compound, the “Triglycerides % of control” value [1, 10] was 56%, the “Serum Triglycerides LSMEAN” value [1, 10] was 112.6† mg/dL and the Triglycerides [1, 10] was 107.9 ± 58.4 mg/dL. The “Serum Triglycerides %” value [1, 11] was 47%, the “Triglycerides % of control” value [1, 11] was 41% and the “Serum Triglycerides LSMEAN” value [1, 11] was 87.6† mg/dL. For the same compound, the Triglycerides [1, 11] was 78.9 ± 46.5 mg/dL, the cholesterol levels ([2]; by 14 days, lowest dosage level) was “reduces cholesterol levels” and the “Serum Cholesterol % of control (LSMEAN)” value [2, 4] was 80%. The “Serum Cholesterol % of control” value [2, 4] was 79%, the “Serum Cholesterol LSMEAN” value [2, 4] was 72.4 mg/dL and the “Serum Cholesterol” value [2, 4] was 72.2 ± 17.7 mg/dL. For the same compound, the “Serum Cholesterol % of control (LSMEAN)” value [2, 5] was 82%, the “Serum Cholesterol % of control” value [2, 5] was 82% and the “Serum Cholesterol LSMEAN” value [2, 5] was 74.6 mg/dL. The “Serum Cholesterol” value [2, 5] was 75.0 ± 24.0 mg/dL, the “Serum Cholesterol % of control (LSMEAN)” value [2, 6] was 85% and the “Serum Cholesterol % of control” value [2, 6] was 85%. For the same compound, the “Serum Cholesterol LSMEAN” value [2, 6] was 77.4 mg/dL, the “Serum Cholesterol” value [2, 6] was 77.6 ± 23.1 mg/dL and the “Serum Cholesterol % of control (LSMEAN)” value [2, 7] was 75%. For the same compound, the “Serum Cholesterol % of control” value [2, 7] was 74%, the “Serum Cholesterol LSMEAN” value [2, 7] was 67.8 mg/dL and the “Serum Cholesterol” value [2, 7] was 67.1 ± 17.9 mg/dL. For the same compound, the “Serum Cholesterol % of control (LSMEAN)” value [2, 8] was 80%, the “Serum Cholesterol % of control” value [2, 8] was 80% and the “Serum Cholesterol LSMEAN” value [2, 8] was 80.6 mg/dL. The “Serum Cholesterol” value [2, 8] was 80.3 ± 21.8 mg/dL, the “Serum Cholesterol % of control (LSMEAN)” value [2, 9] was 62% and the “Serum Cholesterol % of control” value [2, 9] was 62%. For the same compound, the “Serum Cholesterol LSMEAN” value [2, 9] was 61.6† mg/dL, the “Serum Cholesterol” value [2, 9] was 62.0 ± 16.0 mg/dL and the “Serum Cholesterol % of control (LSMEAN)” value [2, 10] was 72%. The “Serum Cholesterol % of control” value [2, 10] was 72%, the “Serum Cholesterol LSMEAN” value [2, 10] was 71.3† mg/dL and the “Serum Cholesterol” value [2, 10] was 71.5 ± 17.8 mg/dL. The “Serum Cholesterol % of control (LSMEAN)” value [2, 11] was 60%, the “Serum Cholesterol % of control” value [2, 11] was 60% and the “Serum Cholesterol LSMEAN” value [2, 11] was 60.9† mg/dL. For the same compound, the “Serum Cholesterol” value [2, 11] was 60.2 ± 19.3 mg/dL, the “plasma DHA fatty acid area percent” value [3] was “correlates with increasing dosing of DHA” and the “plasma EPA fatty acid area percent” value [3] was “does not increase in rats administered DHA-EE or DHASCO® to the same extent that it is increased in Lovaza®”.
